Measurements: US9801844B2, “Methods and compositions for the treatment of cancer” (priority 2012, dated 2017)
“And” between values parts separate entries of the source, which are not always exact repeats. Identical values can stand only once.

Columns and labels:
Format in all cases: cell-based
[1] = tested on: MDA-MB-468 human breast cancer cells; test: Microarray gene expression analysis (Affymetrix, AffyLimma); settings: 6 h
Method: MDA-MB-468 cells were treated with 5 μg/mL (15 μM) or 20 μg/mL of CA for 6 or 24 h. RNA was isolated using methods known in the art. Total cellular RNA was extracted using Trizol (Invitrogen; Carlsbad, Calif.) according to the manufacturer's protocol with minor modifications, and then purified twice with Qiagen's RNeasy column. Total RNA (8 μg) was reverse transcribed with T7-(dT)24 primer and Super Script III reverse transcriptase (Invitrogen).
Microarray analysis was performed using methods known in the art. Labeled cDNA was generated from MDA-MB-468 cells and hybridized to Affymetrix […] genome arrays at Columbia University following standard Affymetrix protocols. Analysis was performed using the AffyLimmaGUI package in the open-source Bioconductor suite.
Affy-Limma analysis was used to determine the effects of carnosic acid, at a dose of 20 μg/ml and at 6 h on the gene expression pattern in MDA-MB-468 breast cancer cells. Assays were performed as described in the Materials and methods section. Fold change (log) is the mean of the ratio of hybridization signals in carnosic acid treated vs. control treated cells {40 highest M (log-fold) values; p<0.05}.
For gene expression analysis, the samples were analyzed by AffyLima analysis. The statistical significance of differential expression was calculated using the empirical Bayesian LIMMA ([…]) method of Smyth et al. (Smyth, G. K. et al., “Use of within-array replicate spots for assessing differential expression in microarray experiments.” Bioinformatics 2005; 21:2067-75, incorporated herein by reference): B=log e(odds of differential expression), the Bayesian natural (base e) log of the odds that the genes are differentially expressed.

[2] = tested on: SUM149 cells; test: Real-time RT-PCR of specific mRNAs in SUM149 cells; settings: 4 μg/ml, 6 h
Method: Real-time RT-PCR analysis was performed on 2 technical replicates of at least 2 biological sample replicates.
Real-time quantitative RT-PCR methods were used to determine the nature of the RNA induced by treatment with CA, using the Real Time PCR machine Stratagene MX3005P QPCR System.
Real-time RT-PCR analysis was performed to examine the mode of action of CA. In MDA-MB-468 cells, CA at 4 μg/ml induced an increase in expression of RNA of the tumor suppressor gene CDKN1A; for MDA-MB-468 cells (6 h: 1.51-logfold; 24 h: 1.61-logfold) (FIG. 3A); for SUM149 cells (6 h: 2.7-logfold). CA had little effect on the expression of the tumor suppressor gene BRCA1.

[3] = tested on: SKOV3 (Her2 overexpressing) human ovarian cancer cells; test: MTT cell proliferation assay on SKOV3 cells; settings: SKOV3, 96 h
Method: SKOV3 (Her2 overexpressing) ovarian cancer cells (ATCC, Manassas, Va.), were grown in McCoy's media (Gibco BRL Life Technologies, Inc., Rockville, Md.) containing 10% (v/v) fetal bovine serum (FBS) (Gibco BRL) at 37° C., 5% C02, plus Penn-Strep (Sigma).
The MTT [3-(4,5-dimethyl-2-thiazol)-2,5-diphenyl-2H tetrazolilum bromide] (Dojindo; Tokyo, Japan) cell proliferation assay system (Roche Diagnostic, Mannheim, Germany) was used to determine the sensitivity of the cell lines to agents. Cells were seeded at 1×10^4 cells/well in 96-well plates and allowed to attach for 24 h. The medium was replaced with fresh medium containing DMSO or compound. The cells were treated for 96 h, after which the media was replaced with fresh media; the cells were incubated with MTT reagents and the absorbance read at 650 and 575 nm. The 650 reading was subtracted from the 575 reading to correct for background absorbance.

## CC(C)c1cc2c(c(O)c1O)[C@@]1(C(=O)O)CCCC(C)(C)[C@@H]1CC2 [carnosic acid]
[1]; 20 μg/ml
  number of genes altered, p<0.05: 124 genes
  ratio of genes activated to suppressed: 4.6
[1]; higher dose (20 μg/ml)
  number of genes repressed: 22 genes
  number of genes whose expression is activated: 102 genes
[1]; low dose (5 μg/ml), glutathione metabolism and transport genes
  number of genes whose expression is activated: 3 genes
[1]; probe 22577_x_at, 20 μg/ml
  M (log-fold) GDF15/LOC100292463 expression: 3.2033 log-fold
[1]; probe 201266_at, 20 μg/ml
  M (log-fold) TXNRD1 expression: 1.6785 log-fold
[1]; probe 201510_at, 20 μg/ml
  M (log-fold) ELF3 expression: −1.3391 log-fold
[1]; probe 202814_s_at, 20 μg/ml
  M (log-fold) HEXIM1 expression: −1.2946 log-fold
[1]; probe 202922_at, 20 μg/ml
  M (log-fold) GCLC expression: 2.5514 log-fold
[1]; probe 202923_s_at, 20 μg/ml
  M (log-fold) GCLC expression: 2.3524 log-fold
[1]; probe 203665_at, 20 μg/ml
  M (log-fold) HMOX1 expression: 6.2079 log-fold
[1]; probe 203702_s_at, 20 μg/ml
  M (log-fold) TTLL4 expression: 1.4497 log-fold
[1]; probe 203925_at, 20 μg/ml
  M (log-fold) GCLM expression: 1.6079 log-fold
[1]; probe 204159_at, 20 μg/ml
  M (log-fold) CDKN2C expression: −1.5843 log-fold
[1]; probe 204286_s_at, 20 μg/ml
  M (log-fold) PMAIP1 expression: 1.5443 log-fold
[1]; probe 204411 at, 20 μg/ml
  M (log-fold) KIF21B expression: 2.0237 log-fold
[1]; probe 205379_at, 20 μg/ml
  M (log-fold) CBR3 expression: 1.4702 log-fold
[1]; probe 206085_s_at, 20 μg/ml
  M (log-fold) CTH expression: 2.3083 log-fold
[1]; probe 206155_at, 20 μg/ml
  M (log-fold) ABCC2 expression: 2.2558 log-fold
[1]; probe 206515 _at, 20 μg/ml
  M (log-fold) CYP4F3 expression: 2.4762 log-fold
[1]; probe 206561_s_at, 20 μg/ml
  M (log-fold) AKR1B10 expression: 2.3416 log-fold
[1]; probe 207528_s_at, 20 μg/ml
  M (log-fold) SLC7A11 expression: 2.3041 log-fold
[1]; probe 207826_s_at, 20 μg/ml
  M (log-fold) ID3 expression: −1.9788 log-fold
[1]; probe 209383_at, 20 μg/ml
  M (log-fold) DDIT3/NR1H3 expression: 1.8207 log-fold
[1]; probe 209409_at, 20 μg/ml
  M (log-fold) GRB10 expression: 1.6777 log-fold
[1]; probe 209882_at, 20 μg/ml
  M (log-fold) RIT1 expression: 1.3792 log-fold
[1]; probe 209921_at, 20 μg/ml
  M (log-fold) SLC7A11 expression: 3.7330 log-fold
[1]; probe 210015_s_at, 20 μg/ml
  M (log-fold) MAP2 expression: 1.9566 log-fold
[1]; probe 211653_x_at, 20 μg/ml
  M (log-fold) AKR1C2 expression: 4.1458 log-fold
[1]; probe 213051_at, 20 μg/ml
  M (log-fold) ZC3HAV1 expression: −1.5819 log-fold
[1]; probe 216594_x_at, 20 μg/ml
  M (log-fold) AKR1C1 expression: 3.8405 log-fold
[1]; probe 217127_at, 20 μg/ml
  M (log-fold) CTH expression: 2.3586 log-fold
[1]; probe 217678_at, 20 μg/ml
  M (log-fold) SLC7A11 expression: 3.9492 log-fold
[1]; probe 217738_at, 20 μg/ml
  M (log-fold) NAMPT expression: 1.4857 log-fold
[1]; probe 217739_s_at, 20 μg/ml
  M (log-fold) NAMPT expression: 1.7329 log-fold
[1]; probe 217996_at, 20 μg/ml
  M (log-fold) PHLDA1 expression: 1.9833 log-fold
[1]; probe 218041_x_at, 20 μg/ml
  M (log-fold) SLC38A2 expression: 1.2613 log-fold
[1]; probe 218145_at, 20 μg/ml
  M (log-fold) TRIB3 expression: 1.6338 log-fold
[1]; probe 218553_s_at, 20 μg/ml
  M (log-fold) KCTD15 expression: 1.3491 log-fold
[1]; probe 219475_at, 20 μg/ml
  M (log-fold) OSGIN1 expression: 1.9508 log-fold
[1]; probe 220924_s_at, 20 μg/ml
  M (log-fold) SLC38A2 expression: 1.2541 log-fold
[1]; probe 221215_s_at, 20 μg/ml
  M (log-fold) RIPK4 expression: −1.2540 log-fold
[1]; probe 221865_at, 20 μg/ml
  M (log-fold) C9orf91 expression: 1.3335 log-fold
[1]; probe 222168_at, 20 μg/ml
  M (log-fold) ALDH1A3 expression: −1.4627 log-fold
[2]
  increase in expression of RNA of CDKN1A: 2.7 logfold
[3]; 5 μg/ml
  % cell proliferation: 105.3%
[3]; 10 μg/ml
  % cell proliferation: 56.7%
[3]; 15 μg/ml
  % cell proliferation: 8.1%
[3]; 20 μg/ml
  % cell proliferation: 6.7%
[3]; Homo sapiens, SK-OV-3, MTT, read-out: IC50, concentration that caused 50% inhibition of cell growth
  IC50: ~10.5 µg/mL and ~31.6 µM
